Test results reported in US7754856B2, “Human sodium-dependent bile acid transporter proteins” (Takeda Pharmaceutical Company Limited, priority 2002, dated 2010).

Target: T1, human TCH230 (Homo sapiens, UniProt Q3KNW5)
T1 construct: expressed in transfected cells
T1 sequence (Q3KNW5 1-377): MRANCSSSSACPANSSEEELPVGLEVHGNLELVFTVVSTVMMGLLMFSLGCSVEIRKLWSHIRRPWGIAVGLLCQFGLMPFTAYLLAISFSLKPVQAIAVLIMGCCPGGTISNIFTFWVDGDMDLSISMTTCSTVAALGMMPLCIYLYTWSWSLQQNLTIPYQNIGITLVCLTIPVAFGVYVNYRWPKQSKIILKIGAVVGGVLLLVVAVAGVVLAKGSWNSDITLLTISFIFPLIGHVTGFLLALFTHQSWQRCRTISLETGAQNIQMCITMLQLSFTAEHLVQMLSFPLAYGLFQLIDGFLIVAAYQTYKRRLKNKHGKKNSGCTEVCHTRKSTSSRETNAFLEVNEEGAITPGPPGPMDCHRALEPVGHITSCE
Test: Incorporation of labeled steroid sulfates into human TCH230-expressing CHO cell strain
Format: cell-based
Details: for incorporation into human TCH230 expressing CHO cells (radioactivity): CHO clone No. 19-6, in the presence of 140 mM NaCl (NaCl buffer vs NMDG buffer, vs Mock cells), 37° C., 1 hour, values only in FIG. 17/18; for substrate of the novel sodium-dependent bile acid transporter protein: summary statement in disclosure
Procedure: Incorporation of [6,7-^3H(N)]-estrone sulfate and [1,2,6,7-^3H(N)]-dehydroepiandrosterone sulfate (hereinafter also referred to as [1,2,6,7-^3H(N)]-DHEA-S) into the human TCH230 (SEQ ID NO:1)-expressing CHO cell strain clone No. 19-6 obtained in Example 19 was measured.
The human TCH230 (SEQ ID NO:1) expressing CHO cell strain clone No. 19-6 was inoculated at a density of 4×10^4 cells/well in a 96 well plate, and cultured at 37° C. for 24 hours in MEMα medium (Invitrogen, Inc.) containing 5 mM sodium butyrate. The medium was removed, and the cells were washed 3 times with 150 μL NMDG buffer (140 mM N-methyl-D(−)-glucamine, 5.4 mM KCl, 0.34 mM Na2HPO4, 0.44 mM KH2PO4, 1.26 mM CaCl2, 0.41 mM MgSO4, 0.49 mM MgCl2, 5.55 mM glucose, pH 7.4-7.6), and incubated in 150 μL NMDG buffer at 37° C. for 1 hour. The buffer was replaced with 90 μL NaCl buffer (140 mM NaCl, 5.4 mM KCl, 0.34 mM Na2HPO4, 0.44 mM KH2PO4, 1.26 mM CaCl2, 0.41 mM MgSO4, 0.49 mM MgCl2, 5.55 mM glucose, pH 7.4-7.6) or 90 μL NMDG buffer, followed by adding 10 μL of 2.5 μM estrone sulfate, ammonium salt, [6,7-^3H(N)]— or 1.37 μM dehydroepiandrosterone sulfate, sodium salt, [1,2,6,7-^3H(N)]— (all of which are available from Perkin-Elmer Life Science). The cells were incubated at 37° C. for 1 hour, and the buffer was removed, then washed 3 times with 200 μL PBS (Takara Bio) and lysed with 10 μL of 0.1N NaOH. 100 μL SuperMix scintillator (Perkin-Elmer Life Science) was added thereto and stirred, and the amount of [6,7-^3H(N)]-estrone sulfate or [1,2,6,7-^3H(N)]-DHEA-S incorporated into the cells was measured in terms of radioactivity. This measurement was carried out with 1450 MICROBETA PLUS LIQUID SCINTILLATION COUNTER (Perkin-Elmer Life Science). CHO dhfr− cells into which vector pcDNA3.1(+) had been introduced (also referred to hereinafter as Mock) was also subjected to the same procedure and measured for radioactivity.

[6,7-^3H(N)]-estrone sulfate
incorporation into human TCH230 expressing CHO cells (radioactivity): incorporate | substrate of the novel sodium-dependent bile acid transporter protein: substrate

[1,2,6,7-^3H(N)]-dehydroepiandrosterone sulfate [[1,2,6,7-^3H(N)]-DHEA-S]
incorporation into human TCH230 expressing CHO cells (radioactivity): incorporate | substrate of the novel sodium-dependent bile acid transporter protein: substrate
